Assay results from patent US20060217447A1, “Wood preservative formulations comprising dichlorophen” (priority 2005, published 2006).
“And” between values parts separate entries of the source, which are not always exact repeats. Identical values can stand only once.

System: decay organisms
Experiment: Soil contact veneer exposure test: dip-treated Scots pine sapwood veneers in damp compost, pulled by hand weekly until failure
Settings: Example 1; 0.6% dichlorophen alone
Description: The present invention also provides a simple exposure test for evaluating the wood preserving abilities of candidate ingredients or compositions. This exposure test is based on the premise that small dimension timber test specimens tend to fail more quickly than larger ones in soil contact situations.
It is preferable that the thickness of the veneers be greater than 0.1 mm, as veneers of lesser thickness can often be pulled apart by hand without undergoing exposure to decay organisms. Veneers which are thicker than 0.4 may take an excessive amount of time to fail the exposure test. In one embodiment, the thickness of the veneers is about 0.2 mm and the wood is the sapwood of the Scots pine (Pinus sylvestris). Other woods and thicknesses can be used. […] An example of convenient width and length dimensions are 15×50 mm. However, width and length are not critical provided they are kept consistent within a test, although very large or small length or width dimensions may be difficult to handle.
Accordingly, the test of the present invention comprises testing the integrity of a veneer after exposure to a decay-inducing environment. In one embodiment, this environment is damp compost in which decay organisms are present and water is present at just above the water holding capacity of the compost. If desired, other media can be used, and the test can be conducted at water contents which are below, at, or above the water-holding capacity of the media.
In general, the integrity of the veneer is inversely related to the length of exposure to the decay promoting environment. The integrity of the veneer can be tested by applying a force to the veneer and noting whether or not the veneer breaks. Thus, if wood preservative agents are applied to the veneers, these veneers would be expected to withstand longer exposure to the environment without breaking compared to control veneers without breaking.
The force applied to the veneers is preferably a force which pulls the two ends in opposite directions. The force can be applied by the use of an instrument or manually. If there is significant decay the veneer will break, generally near the junction between the portion submerged in the decay accelerating medium and the portion exposed to air. If the force is applied manually, it is preferable that the same individual conduct the test at the various exposure time points.
The veneers were cut such that both late wood and early wood were present in each veneer. The following biocides were tested: dichlorophen, fenarimol, imazalil sulfate, and PHMB.
Test solutions were prepared and sets of veneers were dip treated such that there were 6 replicate veneers for each treatment under investigation. Additionally six veneers were dip treated in deionised water to act as water controls. […] Plastic containers (approximately 350×220 mm by at least 60 mm high) were part filled with John Innes Number 2 potting compost at a little above its water holding capacity. The veneers for a particular test were placed in six rows within a container such that approximately half the veneer was below the compost and half above. The veneers were placed in the compost such than those given a particular treatment were distributed throughout the container and were not grouped together. The containers, compost and veneers were weighed then incubated at about 30° C. and near 100% relative humidity in an incubator. Each week during the test the assembly was reweighed and deionised water added to bring it back to its original mass. After 3 weeks each veneer was examined in turn. It was held between the fingers at each end and pulled to see if it could be broken. If it could be pulled apart a failure was recorded. If the veneer was sound, this was recorded and the veneer was returned to its original position. After a further one week incubation all sound veneers were assessed again as described above, with the same person conducting the assessments.

In the case of `Oc1ccc(Cl)cc1Cc1cc(Cl)ccc1O` [Dichlorophen, 2,2′-methylenebis [4-chlorophenol]], the “average time for failure to occur” value is reported as 9.5 weeks.

Same assay, conditions: Example 1; single biocide at 0.4% in treatment solution

In the case of “1H-imidazole, 1-(2-(2,4-dichlorphenyl)-2-(2-propenyloxy)ethyl)-,sulfate [Imazalil Sulphate]”, the “average time for failure to occur” value is reported as 5.2 weeks.

Same assay, conditions: Example 1; single biocide at 0.8% in treatment solution; 6 replicate veneers

`OC(c1ccc(Cl)cc1)(c1cncnc1)c1ccccc1Cl` (racemic) [Fenarimol, (±)-2,4′-dichloro-α-(pyrimidin-5-yl) benzhydryl alcohol] was tested, and the “average time for failure to occur” value was ~7.2 weeks and 7.2 weeks.

“Poly(hexamethylenebiguanide) hydrochloride [PHMB]” was tested, and the “average time for failure to occur” value was 4.8 weeks.

Same assay, conditions: Example 2; 0.36% active quaternary ammonium compound in deionised water

Going from `CCCCCCCCCC[N+](C)(C)CCCCCCCCCC.[Cl-]` [DDAC, didecyl dimethyl ammonium chloride] to “N,N-didecyl-N-methyl-poly(oxyethyl) ammonium propionate [Bardap 26]”, the “average time for failure to occur, Quat Only” value rises from 4.2 weeks to 5.0 weeks.

Same assay, conditions: Example 2; 0.60% dichlorophen, no quat

`Oc1ccc(Cl)cc1Cc1cc(Cl)ccc1O` [Dichlorophen, 2,2′-methylenebis [4-chlorophenol]] was tested, and the “average time for failure to occur” value was 5.7 weeks.

Same assay, conditions: Example 3; solutions in IMS (alcohol); 2% single biocide

Going from `OC(c1ccc(Cl)cc1)(c1cncnc1)c1ccccc1Cl` (racemic) [Fenarimol, (±)-2,4′-dichloro-α-(pyrimidin-5-yl) benzhydryl alcohol] to `CC(C1CC1)C(O)(Cn1cncn1)c1ccc(Cl)cc1` (stereo not drawn) [Cyproconazole, α-(4-chlorophenyl)-α-(1-cyclopropylethyl)-=1H-1,2,4-triazol-1-ethanol], the “Half life for fungicide at 2% active ingredient (ai)” value falls from 7.33 weeks to 6.67 weeks.

Compared with `Oc1ccc(Cl)cc1Cc1cc(Cl)ccc1O` [Dichlorophen, 2,2′-methylenebis [4-chlorophenol]], `O=C(Nc1ccccc1)c1ccccc1O` [Salicylanilide, 2-hydroxy-N-phenylbenzamide] is lower in “Half life for fungicide at 2% active ingredient (ai)” value: 15.67 weeks for the first, 14.00 weeks for the second.

First: CC(Cc1ccc(C(C)(C)C)cc1)CN1C[C@@H](C)O[C@@H](C)C1 (stereo partly drawn) [Fenpropimorph, cis-4-[3-[4-(1,1-dimethylethyl)phenyl]-2-methylpropyl]-=2,6-dimethylmorpholine]
Second: CCCCCCCCCCCCCN1CC(C)OC(C)C1 (stereo not drawn) [Tridemorph, 4-alkyl-2,6-dimethylmorpholine]
The “Half life for fungicide at 2% active ingredient (ai)” value of the first is higher: 6.17 weeks for the first, 5.83 weeks for the second.

Same assay, conditions: Example 4; solutions in acetone; 2% single biocide

First: Oc1ccc(Cl)cc1Cc1cc(Cl)ccc1O [Dichlorophen, 2,2′-methylenebis [4-chlorophenol]]
Second: CCCC1COC(Cn2cncn2)(c2ccc(Cl)cc2Cl)O1 (stereo not drawn) [Propiconazole, 1-[[2-(2,4-dichlorophenyl)-4-propyl-1,3-dioxolan-2-yl]=methyl]-1H-1,2,4-triazole]
The “Half life for fungicide at 2% ai” value of the first is higher: 18.17 weeks for the first, 6.33 weeks for the second.

Same assay, conditions: Example 5; solutions in IMS (alcohol); 2% single biocide

Going from “1H-imidazole, 1-(2-(2,4-dichlorphenyl)-2-(2-propenyloxy)ethyl)-,sulfate [Imazalil Sulphate]” to `CCCCCCCCCC[N+](C)(C)CCCCCCCCCC.[Cl-]` [DDAC, didecyl dimethyl ammonium chloride], the “Half life for fungicide at 2% ai” value falls from 7.83 weeks to 5.50 weeks.

First: Oc1ccc(Cl)cc1Cc1cc(Cl)ccc1O [Dichlorophen, 2,2′-methylenebis [4-chlorophenol]]
Second: COC(=O)N(OC)c1ccccc1COc1ccn(-c2ccc(Cl)cc2)n1 [Pyraclostrobin, methyl N-{2-[1-(4-chlorophenyl)-1H-pyrazol-3-yloxymethyl]phenyl}(N-methoxy)carbamate]
The “Half life for fungicide at 2% ai” value of the first is higher: 17.00 weeks for the first, 5.67 weeks for the second.

First: CCCCCCCCCCCCN(CCCN)CCCN [Triameen, N,N-bis(3-aminopropyl) dodecylamine]
Second: alkyl dimethyl benzyl ammonium chloride [BAC]
The “Half life for fungicide at 2% ai” value of the first is higher: 5.50 weeks for the first, 5.00 weeks for the second.

Same assay, conditions: Example 6; solutions in IMS (alcohol); single biocide at 0.8%

Compared with “1H-imidazole, 1-(2-(2,4-dichlorphenyl)-2-(2-propenyloxy)ethyl)-,sulfate [Imazalil Sulphate]”, `CCCCCCCCCC[N+](C)(C)CCCCCCCCCC.[Cl-]` [DDAC, didecyl dimethyl ammonium chloride] is lower in Calculated half life: 7.00 weeks for the first, 5.17 weeks for the second.

First: Oc1ccc(Cl)cc1Cc1cc(Cl)ccc1O [Dichlorophen, 2,2′-methylenebis [4-chlorophenol]]
Second: N,N-didecyl-N-methyl-poly(oxyethyl) ammonium propionate [Bardap 26]
The Calculated half life of the first is higher: 11.33 weeks for the first, 5.17 weeks for the second.

Same assay, conditions: Example 6; solutions in IMS (alcohol); single biocide at 1.6%

Going from “1H-imidazole, 1-(2-(2,4-dichlorphenyl)-2-(2-propenyloxy)ethyl)-,sulfate [Imazalil Sulphate]” to `CCCCCCCCCC[N+](C)(C)CCCCCCCCCC.[Cl-]` [DDAC, didecyl dimethyl ammonium chloride], the Calculated half life falls from 8.00 weeks to 6.67 weeks.

First: Oc1ccc(Cl)cc1Cc1cc(Cl)ccc1O [Dichlorophen, 2,2′-methylenebis [4-chlorophenol]]
Second: N,N-didecyl-N-methyl-poly(oxyethyl) ammonium propionate [Bardap 26]
The Calculated half life of the first is higher: 14.50 weeks for the first, 6.00 weeks for the second.

Same assay, conditions: Example 7; solutions in acetone; single biocide at 0.8%

Going from `N#Cc1c(Cl)c(Cl)c(Cl)c(C#N)c1Cl` [Chlorothalonil, 2,4,5,6-tetrachloro-1,3-benzenedicarbonitrile] to `Oc1ccc(Cl)cc1Cc1cc(Cl)ccc1O` [Dichlorophen, 2,2′-methylenebis [4-chlorophenol]], the Calculated half life falls from 9.33 weeks to 8.67 weeks.

Going from `CC(C1CC1)C(O)(Cn1cncn1)c1ccc(Cl)cc1` (stereo not drawn) [Cyproconazole, α-(4-chlorophenyl)-α-(1-cyclopropylethyl)-=1H-1,2,4-triazol-1-ethanol] to `CCCC1COC(Cn2cncn2)(c2ccc(Cl)cc2Cl)O1` (stereo not drawn) [Propiconazole, 1-[[2-(2,4-dichlorophenyl)-4-propyl-1,3-dioxolan-2-yl]=methyl]-1H-1,2,4-triazole], the Calculated half life rises from 4.33 weeks to 5.67 weeks.

Going from `CC(Cc1ccc(C(C)(C)C)cc1)CN1C[C@@H](C)O[C@@H](C)C1` (stereo partly drawn) [Fenpropimorph, cis-4-[3-[4-(1,1-dimethylethyl)phenyl]-2-methylpropyl]-=2,6-dimethylmorpholine] to `CCCCCCCCn1sc(Cl)c(Cl)c1=O` [RH 287, 4,5-dichloro-2-n-octyl-3(2H)-isothiazolone], the Calculated half life rises from 3.67 weeks to 10.00 weeks.

Same assay, conditions: Example 7; solutions in acetone; single biocide at 1.6%

First: N#Cc1c(Cl)c(Cl)c(Cl)c(C#N)c1Cl [Chlorothalonil, 2,4,5,6-tetrachloro-1,3-benzenedicarbonitrile]
Second: Oc1ccc(Cl)cc1Cc1cc(Cl)ccc1O [Dichlorophen, 2,2′-methylenebis [4-chlorophenol]]
The Calculated half life of the first is higher: 12.33 weeks for the first, 10.83 weeks for the second.

Going from `CC(C1CC1)C(O)(Cn1cncn1)c1ccc(Cl)cc1` (stereo not drawn) [Cyproconazole, α-(4-chlorophenyl)-α-(1-cyclopropylethyl)-=1H-1,2,4-triazol-1-ethanol] to `CCCC1COC(Cn2cncn2)(c2ccc(Cl)cc2Cl)O1` (stereo not drawn) [Propiconazole, 1-[[2-(2,4-dichlorophenyl)-4-propyl-1,3-dioxolan-2-yl]=methyl]-1H-1,2,4-triazole], the Calculated half life rises from 4.50 weeks to 6.00 weeks.

Going from `CC(Cc1ccc(C(C)(C)C)cc1)CN1C[C@@H](C)O[C@@H](C)C1` (stereo partly drawn) [Fenpropimorph, cis-4-[3-[4-(1,1-dimethylethyl)phenyl]-2-methylpropyl]-=2,6-dimethylmorpholine] to `CCCCCCCCn1sc(Cl)c(Cl)c1=O` [RH 287, 4,5-dichloro-2-n-octyl-3(2H)-isothiazolone], the Calculated half life rises from 4.33 weeks to 16.83 weeks.

Same assay, conditions: Example 8; solutions in IMS (alcohol); single biocide at 0.8%

First: OB(O)O [Boric acid]
Second: Oc1ccc(Cl)cc1Cc1cc(Cl)ccc1O [Dichlorophen, 2,2′-methylenebis [4-chlorophenol]]
The Calculated half life of the first is lower: 4.17 weeks for the first, 7.83 weeks for the second.

First: O=C(Nc1ccccc1)c1ccccc1O [Salicylanilide, 2-hydroxy-N-phenylbenzamide]
Second: Poly(hexamethylenebiguanide) hydrochloride [PHMB]
The Calculated half life of the first is lower: 4.83 weeks for the first, 5.00 weeks for the second.

“alkyl dimethyl benzyl ammonium chloride [BAC]” was tested, and the Calculated half life was 5.00 weeks.

Same assay, conditions: Example 8; solutions in IMS (alcohol); single biocide at 1.6%

First: OB(O)O [Boric acid]
Second: Oc1ccc(Cl)cc1Cc1cc(Cl)ccc1O [Dichlorophen, 2,2′-methylenebis [4-chlorophenol]]
The Calculated half life of the first is lower: 4.50 weeks for the first, 11.67 weeks for the second.

Compared with `O=C(Nc1ccccc1)c1ccccc1O` [Salicylanilide, 2-hydroxy-N-phenylbenzamide], “Poly(hexamethylenebiguanide) hydrochloride [PHMB]” is lower in Calculated half life: 5.83 weeks for the first, 5.50 weeks for the second.

Compound “alkyl dimethyl benzyl ammonium chloride [BAC]” has a Calculated half life of 5.00 weeks.
